Test results from ChEMBL document CHEMBL1201862, “PubChem BioAssay data set” (2004).
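In this assay, cells in 96-well plates receive the compound at five concentrations for 48 hours. Endpoints are linearly interpolated between the surrounding concentrations. GI50: concentration for 50% inhibition of growth.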 The source made the active and inactive calls. Rule as the data show it: active = GI50 up to about 1.1 µM and inactive = higher.

What was measured:
Experiment in all cases: inhibition of tumour cell growth, NCI panel, 48 h
[1] = tested on: SN12C
[2] = tested on: U-251
[3] = tested on: SW-620
[4] = tested on: M14
[5] = tested on: EKVX
[6] = tested on: SNB-75
[7] = tested on: NCI-H522
[8] = tested on: RPMI-8226
[9] = tested on: SNB-19
[10] = tested on: SF-295
[11] = tested on: UACC-257
[12] = tested on: LOX IMVI
[13] = tested on: K562
[14] = tested on: SK-MEL-2
[15] = tested on: OVCAR-8
[16] = tested on: SK-MEL-5
[17] = tested on: UACC-62
[18] = tested on: OVCAR-4
[19] = tested on: A549
[20] = tested on: NCI-H460

Measured: GI50

O=S(=O)(O)c1c(/N=N/c2c(O)ccc3ccccc23)ccc2ccccc12
inactive: [1] > 100 µM | [2] > 100 µM | [3] > 100 µM | [4] > 100 µM | [5] > 100 µM | [6] > 100 µM | [7] 93.5 µM | [8] > 100 µM | [9] > 100 µM | [10] > 100 µM | [11] > 100 µM | [12] > 100 µM | [13] > 100 µM | [14] > 100 µM | [15] > 100 µM | [16] > 100 µM | [17] > 100 µM | [18] > 100 µM | [19] > 100 µM

CC(C)CN1CN(c2ccccc2)C2(CCN(CC(C)(c3ccc(F)cc3)C3OCCO3)CC2)C1=O (stereo not drawn)
inactive: [1] 5.75 µM | [2] 4.75 µM | [3] 3.17 µM | [4] 2.36 µM | [5] 6.01 µM | [6] 7.33 µM | [7] 3.96 µM | [8] 1.94 µM | [9] 7.21 µM | [10] 3.87 µM | [11] 3.04 µM | [12] 2.08 µM | [13] 3.08 µM | [14] 2.89 µM | [15] 10.1 µM | [16] 2.02 µM | [17] 6.92 µM | [18] 5.6 µM | [19] 5.09 µM

O=C(NCCO)c1ccc([N+](=O)[O-])cc1
inactive: [1] > 100 µM | [2] > 100 µM | [3] > 100 µM | [4] > 100 µM | [5] > 100 µM | [6] > 100 µM | [7] > 100 µM | [8] > 100 µM | [20] > 100 µM | [9] > 100 µM | [10] > 100 µM | [11] > 100 µM | [12] > 100 µM | [13] > 100 µM | [14] > 100 µM | [15] > 100 µM | [16] > 100 µM | [17] > 100 µM | [19] > 100 µM

Cc1nc2cc([N+](=O)[O-])ccc2c(NCCCN(C)C)c1C
inactive: [1] 11.4 µM | [2] 18.8 µM | [3] 5.3 µM | [4] 13.8 µM | [6] 20.7 µM | [7] 3.61 µM | [8] 12.9 µM | [20] 3.18 µM | [10] 17.3 µM | [11] 5.45 µM | [12] 11 µM | [13] 3.77 µM | [14] 10.5 µM | [15] 11.5 µM | [16] 10.1 µM | [17] 15.6 µM | [18] 3.03 µM | [19] 6.21 µM

CC(=O)O[C@H]1CC[C@@]2(C)[C@@H](CC[C@@H]3[C@@H]2CC(=O)[C@@]2(C)[C@H]3C[C@@H]3CC(C)=CC(=O)[C@@H]32)C1
inactive: [1] 41 µM | [2] > 100 µM | [3] > 100 µM | [4] 29.7 µM | [5] 28.9 µM | [6] 30.1 µM | [7] 39.5 µM | [8] 16 µM | [9] > 100 µM | [10] 56.1 µM | [11] 62.1 µM | [12] > 100 µM | [13] 40.5 µM | [14] > 100 µM | [15] 59.7 µM | [16] 40.9 µM | [17] 64.7 µM | [18] 56.5 µM | [19] 62.4 µM

O=c1c2cccc3cccc(c4oc5c6cccc7cccc(c(=O)c5c14)c76)c32
inactive: [1] 13.8 µM | [2] 12.7 µM | [3] 11.8 µM | [4] 12.4 µM | [5] 12.2 µM | [6] 14 µM | [7] 5.4 µM | [8] 12.8 µM | [20] 12.5 µM | [9] 11.6 µM | [10] 17.9 µM | [11] 17.1 µM | [12] 12.2 µM | [13] > 10 µM | [14] 15.7 µM | [15] 11.1 µM | [16] 15.2 µM | [17] 12.8 µM | [19] 2.06 µM

CC(C)C(NC(=O)C(Cc1ccccc1)NC(=O)[C@H]1CCC[C@H]1NC(=O)C(Cc1ccc(OC(C)(C)C)cc1)NC(=O)OC(C)(C)C)C(N)=O (stereo partly drawn)
inactive: [1] 18.2 µM | [2] 14.2 µM | [3] 20.9 µM | [4] 18 µM | [5] > 100 µM | [6] 11.4 µM | [7] 14.9 µM | [8] 36.5 µM | [20] 19.2 µM | [10] 17.3 µM | [11] > 10 µM | [12] 15.6 µM | [13] 17.8 µM | [14] 26 µM | [15] 16.6 µM | [16] 9.95 µM | [17] 13.8 µM | [18] 19.4 µM | [19] 20.1 µM

CCC(=C(c1ccc(OCc2ccccc2)cc1)c1ccc(OCc2ccccc2)cc1)c1ccc(OC)cc1
inactive: [1] > 100 µM | [2] > 100 µM | [3] > 100 µM | [4] > 100 µM | [5] > 100 µM | [6] > 100 µM | [7] > 100 µM | [8] > 100 µM | [20] > 100 µM | [9] > 100 µM | [10] > 100 µM | [12] > 100 µM | [13] > 100 µM | [14] > 100 µM | [15] > 100 µM | [16] > 100 µM | [17] > 100 µM | [18] > 100 µM | [19] > 100 µM

COC(=O)CCc1ccc(CCC(=O)OC)cc1
inactive: [2] > 100 µM | [3] > 100 µM | [4] > 100 µM | [5] > 100 µM | [6] > 100 µM | [7] > 100 µM | [8] > 100 µM | [20] > 100 µM | [9] > 100 µM | [10] > 100 µM | [11] > 100 µM | [12] > 100 µM | [13] > 100 µM | [14] > 100 µM | [15] > 100 µM | [16] > 100 µM | [18] > 100 µM | [19] > 100 µM

Cc1ncc([N+](=O)[O-])n1CCNS(=O)(=O)CCCn1ncnc1[N+](=O)[O-]
inactive: [1] > 100 µM | [2] > 100 µM | [3] > 100 µM | [4] > 100 µM | [5] > 100 µM | [6] > 100 µM | [7] > 100 µM | [8] > 100 µM | [20] > 100 µM | [10] > 100 µM | [11] > 100 µM | [12] > 100 µM | [13] > 100 µM | [14] > 100 µM | [15] > 100 µM | [16] > 100 µM | [17] > 100 µM | [18] > 100 µM | [19] > 100 µM
